# Measurements: patent publication US20240376151A1, “STAPLED PEPTIDES AND METHODS THEREOF” (FOG PHARMACEUTICALS, INC., priority 2022, published 2024)
# Peptide text beside a SMILES is read from it. * marks the point of attachment. 5FAM = O=C1OC2(c3ccc(O)cc3Oc3cc(O)ccc32)c2ccc(C(=O)*)cc21
# Legend:
# Expi293 cells [1] = test: Measurement of the Cell Association of Helicons (mass spectrometry quantification in cells after treatment and wash); format: cell-based; conditions: percentage of Helicons in cells after treatment and wash, 22 hours, n = 2, mean ± SD
# Procedure: All samples were analyzed using mass spectrometry.
# Expi293 cells [2] = test: CellTiter-Glo cell health (ATP levels) during cell association assay; format: cell-based; conditions: reflective of cell health, luminescence Tfinal (22 hours) / Tinitial
SMILES,Helicon in cells ± SD (%) (Expi293 cells [1]),CellTiter-Glo fold change ± SD (Expi293 cells [2])
"CCCC[C@H](NC(=O)[C@@H](NC(C)=O)C(C)C)C(=O)N[C@@H](CCC(N)=O)C(=O)N[C@]1(C)CCCCCCC=CCCC[C@@](C)(C(=O)N[C@@H](Cc2c[nH]cn2)C(=O)N[C@@H](Cc2ccc(O)cc2)C(=O)N[C@H](C(N)=O)C(C)C)NC(=O)[C@H]([C@@H](C)CC)NC(=O)[C@H](Cc2ccccc2)NC(=O)[C@H](C)NC(=O)[C@H](C)NC(=O)[C@H](CCC(=O)O)NC(=O)[C@H](Cc2ccc(O)cc2)NC1=O (single isomer, unassigned) [FP07863, Ac-Val-nLeu-Gln-R8-Tyr-Glu-Ala-Ala-Phe-Ile-S5-His-Tyr-Val-NH2]",23.5 ± 6.5,1.2 ± 0.02
"CCCC[C@H](NC(=O)[C@@H](NC(C)=O)C(C)C)C(=O)N[C@@H](CCC(N)=O)C(=O)N[C@]1(C)CCCCCCC=CCCC[C@@](C)(C(=O)N[C@@H](Cc2c[nH]cn2)C(=O)N[C@@H](Cc2ccc(O)cc2)C(=O)N[C@H](C(N)=O)C(C)C)NC(=O)[C@H]([C@@H](C)CC)NC(=O)[C@H](Cc2ccccc2)NC(=O)[C@H](C)NC(=O)[C@H](C)NC(=O)[C@H](CCC(=O)O)NC(=O)[C@H](Cc2ccc(O)cc2)NC1=O (single isomer, unassigned) [FP07864, Ac-Val-nLeu-Gln-R8-Tyr-Glu-Ala-Ala-Phe-Ile-S5-His-Tyr-Val-NH2]",18.5 ± 11.4,1.1 ± 0.05
"CCCC[C@H](NC(=O)[C@@H](NC(C)=O)C(C)C)C(=O)N[C@@H](CCC(=O)O)C(=O)N[C@]1(C)CCCCCCC=CCCC[C@@](C)(C(=O)N[C@@H](Cc2c[nH]cn2)C(=O)N[C@@H](Cc2ccc(O)cc2)C(=O)N[C@H](C(N)=O)C(C)C)NC(=O)[C@H]([C@@H](C)CC)NC(=O)[C@H](Cc2ccccc2)NC(=O)[C@H](C)NC(=O)[C@H](C)NC(=O)[C@H](CCC(N)=O)NC(=O)[C@H](Cc2ccc(O)cc2)NC1=O (single isomer, unassigned) [FP07867, Ac-Val-nLeu-Glu-R8-Tyr-Gln-Ala-Ala-Phe-Ile-S5-His-Tyr-Val-NH2]",8.6 ± 0.4,1.2 ± 0.03
"CCCC[C@H](NC(=O)[C@@H](NC(C)=O)C(C)C)C(=O)N[C@@H](CCC(=O)O)C(=O)N[C@]1(C)CCCCCCC=CCCC[C@@](C)(C(=O)N[C@@H](Cc2c[nH]cn2)C(=O)N[C@@H](Cc2ccc(O)cc2)C(=O)N[C@H](C(N)=O)C(C)C)NC(=O)[C@H]([C@@H](C)CC)NC(=O)[C@H](Cc2ccccc2)NC(=O)[C@H](C)NC(=O)[C@H](C)NC(=O)[C@H](CCC(N)=O)NC(=O)[C@H](Cc2ccc(O)cc2)NC1=O (single isomer, unassigned) [FP07868, Ac-Val-nLeu-Glu-R8-Tyr-Gln-Ala-Ala-Phe-Ile-S5-His-Tyr-Val-NH2]",10.3 ± 1.4,1.2 ± 0.10
"CCCC[C@H](NC(=O)[C@@H](NC(C)=O)C(C)C)C(=O)N[C@@H](CCC(N)=O)C(=O)N[C@]1(C)CCCCCCC=CCCC[C@@](C)(C(=O)N[C@@H](Cc2c[nH]cn2)C(=O)N[C@@H](Cc2ccc(O)cc2)C(=O)N[C@H](C(N)=O)C(C)C)NC(=O)[C@H]([C@@H](C)CC)NC(=O)[C@H](Cc2ccccc2)NC(=O)[C@H](C)NC(=O)[C@H](C)NC(=O)[C@H](CCC(N)=O)NC(=O)[C@H](Cc2ccc(O)cc2)NC1=O (single isomer, unassigned) [FP07871, Ac-Val-nLeu-Gln-R8-Tyr-Gln-Ala-Ala-Phe-Ile-S5-His-Tyr-Val-NH2]",7.0 ± 0.3,1.2 ± 0.03
"CCCC[C@H](NC(=O)[C@@H](NC(C)=O)C(C)C)C(=O)N[C@@H](CCC(N)=O)C(=O)N[C@]1(C)CCCCCCC=CCCC[C@@](C)(C(=O)N[C@@H](Cc2c[nH]cn2)C(=O)N[C@@H](Cc2ccc(O)cc2)C(=O)N[C@H](C(N)=O)C(C)C)NC(=O)[C@H]([C@@H](C)CC)NC(=O)[C@H](Cc2ccccc2)NC(=O)[C@H](C)NC(=O)[C@H](C)NC(=O)[C@H](CCC(N)=O)NC(=O)[C@H](Cc2ccc(O)cc2)NC1=O (single isomer, unassigned) [FP07872, Ac-Val-nLeu-Gln-R8-Tyr-Gln-Ala-Ala-Phe-Ile-S5-His-Tyr-Val-NH2]",11.7 ± 1.6,1.1 ± 0.02
"CC(=O)N[C@@H](CC(C)C)C(=O)N[C@H](C(=O)N[C@@H](Cc1ccccc1)C(=O)N[C@]1(C)CCCCCCC=CCCC[C@@](C)(C(=O)N[C@@H](CO)C(=O)N[C@@H](C)C(=O)N[C@@H](C)C(N)=O)NC(=O)[C@H](CC2CCC2)NC(=O)[C@H](CCC(N)=O)NC(=O)[C@H](C)NC(=O)[C@H](Cc2c[nH]c3ccccc23)NC(=O)[C@H](Cc2ccc(O)cc2)NC(=O)[C@H](CCC(=O)O)NC1=O)[C@@H](C)O [FP01413, Ac-Leu-Thr-Phe-R8-Glu-Tyr-Trp-Ala-Gln-Cba-S5-Ser-Ala-Ala-NH2, reference compound]",3.7 ± 0.4,1.2 ± 0.07
"CC(C)C[C@H](NC(=O)[C@H](C)NC(=O)CNC(=O)[C@H](CCCCN)NC(=O)[C@H](CCCNC(=N)N)NC(=O)[C@H](C)NC(=O)[C@H](Cc1ccccc1)NC(=O)[C@H](CCCNC(=N)N)NC(=O)[C@H](CCC(N)=O)NC(=O)c1ccc2c(c1)C(=O)OC21c2ccc(O)cc2Oc2cc(O)ccc21)C(=O)N[C@@H](CCCNC(=N)N)C(=O)N[C@@H](CCC(N)=O)C(=O)N[C@@H](CCCCN)C(=O)N[C@@H](CC(N)=O)C(=O)N[C@H](C(N)=O)C(C)C [FP47831, reference compound] (5FAM-QRFARKGALRQKNV-NH2)",0.0 ± 0.0,1.1 ± 0.02

# The next lines start with the values.
Helicon in cells ± SD (%) (Expi293 cells [1]),CellTiter-Glo fold change ± SD (Expi293 cells [2]),SMILES
0.1 ± 0.0,1.2 ± 0.02,"CC[C@H](C)[C@H](NC(C)=O)C(=O)N[C@@H](CC(C)C)C(=O)N[C@@H](CCC(N)=O)C(=O)N[C@]1(C)CCCCCCC=CCCC[C@@](C)(C(=O)N[C@@H](Cc2c[nH]cn2)C(=O)N[C@@H](Cc2ccc(O)cc2)C(=O)N[C@@H](CCC(N)=O)C(N)=O)NC(=O)[C@H](CO)NC(=O)[C@H](Cc2ccccc2)NC(=O)[C@H](C)NC(=O)[C@H](C)NC(=O)[C@H](CCC(=O)O)NC(=O)[C@H](Cc2ccc(O)cc2)NC1=O (single isomer, unassigned) [FP07859, Ac-Ile-Leu-Gln-R8-Tyr-Glu-Ala-Ala-Phe-Ser-S5-His-Tyr-Gln-NH2]"
0.3 ± 0.0,1.2 ± 0.03,"CC[C@H](C)[C@H](NC(C)=O)C(=O)N[C@@H](CC(C)C)C(=O)N[C@@H](CCC(N)=O)C(=O)N[C@]1(C)CCCCCCC=CCCC[C@@](C)(C(=O)N[C@@H](Cc2c[nH]cn2)C(=O)N[C@@H](Cc2ccc(O)cc2)C(=O)N[C@@H](CCC(N)=O)C(N)=O)NC(=O)[C@H](CO)NC(=O)[C@H](Cc2ccccc2)NC(=O)[C@H](C)NC(=O)[C@H](C)NC(=O)[C@H](CCC(=O)O)NC(=O)[C@H](Cc2ccc(O)cc2)NC1=O (single isomer, unassigned) [FP07860, Ac-Ile-Leu-Gln-R8-Tyr-Glu-Ala-Ala-Phe-Ser-S5-His-Tyr-Gln-NH2]"
6.5 ± 0.5,1.2 ± 0.01,"CC[C@H](C)[C@H](NC(=O)[C@H](Cc1ccc(O)cc1)NC(=O)[C@H](CCC(N)=O)NC(=O)[C@]1(C)CCCC=CCCCCCC[C@@](C)(NC(=O)[C@H](Cc2c[nH]cn2)NC(=O)[C@@H](NC(=O)[C@@H](NC(C)=O)[C@@H](C)CC)[C@@H](C)CC)C(=O)N[C@@H](Cc2ccc(O)cc2)C(=O)N[C@@H](CCC(=O)O)C(=O)N[C@@H](C)C(=O)N[C@@H](C)C(=O)N[C@@H](Cc2ccccc2)C(=O)N[C@@H](Cc2ccccc2)C(=O)N1)C(N)=O (single isomer, unassigned) [FP08011, Ac-Ile-Ile-His-R8-Tyr-Glu-Ala-Ala-Phe-Phe-S5-Gln-Tyr-Ile-NH2]"
5.4 ± 0.9,1.1 ± 0.04,"CC[C@H](C)[C@H](NC(=O)[C@H](Cc1ccc(O)cc1)NC(=O)[C@H](CCC(N)=O)NC(=O)[C@]1(C)CCCC=CCCCCCC[C@@](C)(NC(=O)[C@H](Cc2c[nH]cn2)NC(=O)[C@@H](NC(=O)[C@@H](NC(C)=O)[C@@H](C)CC)[C@@H](C)CC)C(=O)N[C@@H](Cc2ccc(O)cc2)C(=O)N[C@@H](CCC(=O)O)C(=O)N[C@@H](C)C(=O)N[C@@H](C)C(=O)N[C@@H](Cc2ccccc2)C(=O)N[C@@H](Cc2ccccc2)C(=O)N1)C(N)=O (single isomer, unassigned) [FP08012, Ac-Ile-Ile-His-R8-Tyr-Glu-Ala-Ala-Phe-Phe-S5-Gln-Tyr-Ile-NH2]"
0.6 ± 0.1,1.2 ± 0.01,"CCCC[C@H](NC(=O)[C@H](Cc1ccc(O)cc1)NC(=O)[C@H](CCC(N)=O)NC(=O)[C@]1(C)CCCC=CCCCCCC[C@@](C)(NC(=O)[C@H](CCC(=O)O)NC(=O)[C@H](CC(C)C)NC(=O)[C@@H](NC(C)=O)[C@@H](C)CC)C(=O)N[C@@H](Cc2ccc(O)cc2)C(=O)N[C@@H](CCC(=O)O)C(=O)N[C@@H](C)C(=O)N[C@@H](C)C(=O)N[C@@H](Cc2ccccc2)C(=O)N[C@@H](CCC(=O)O)C(=O)N1)C(N)=O (single isomer, unassigned) [FP08017, Ac-Ile-Leu-Glu-R8-Tyr-Glu-Ala-Ala-Phe-Glu-S5-Gln-Tyr-nLeu-NH2]"
1.0 ± 0.1,1.1 ± 0.05,"CCCC[C@H](NC(=O)[C@H](Cc1ccc(O)cc1)NC(=O)[C@H](CCC(N)=O)NC(=O)[C@]1(C)CCCC=CCCCCCC[C@@](C)(NC(=O)[C@H](CCC(=O)O)NC(=O)[C@H](CC(C)C)NC(=O)[C@@H](NC(C)=O)[C@@H](C)CC)C(=O)N[C@@H](Cc2ccc(O)cc2)C(=O)N[C@@H](CCC(=O)O)C(=O)N[C@@H](C)C(=O)N[C@@H](C)C(=O)N[C@@H](Cc2ccccc2)C(=O)N[C@@H](CCC(=O)O)C(=O)N1)C(N)=O (single isomer, unassigned) [FP08018, Ac-Ile-Leu-Glu-R8-Tyr-Glu-Ala-Ala-Phe-Glu-S5-Gln-Tyr-nLeu-NH2]"
